Residues, ends and D or L forms follow the SMILES beside them.

The source of these data is US20210322508A1, “PEPTIDES AND COMPOSITIONS FOR TARGETED TREATMENT AND IMAGING” (SIGNABLOK, INC., priority 2018, published 2021).

The subject of experiment [1] is LPS-stimulated macrophages. As to the kind of experiment: cytokine production by LPS-stimulated macrophages. The class given is cell-based, murine. Particulars: 24 h at 37° C.; for cytokine release by LPS-stimulated macrophages in the presence of HDL: with HDL. The method, then:
FIG. 33 presents exemplary data showing cytokine production by LPS-stimulated macrophages incubated for 24 h at 37° C. with GF9, G-TE21, G-HV21 and G-KV21 in the presence of HDL.

The test system of experiment [2] is human pancreatic cancer BxPC-3 xenograft. The conditions noted are these: for intratumoral macrophage infiltration (F4/80 staining): 25 mg/kg GF9, 2.5 mg/kg GF9-sSLP/GF9-LPC, 4 mg/kg GA/E31-sSLP where stated; for tumor growth: i.p. 5qw, 25 mg/kg GF9, 2.5 mg/kg GF9-SLP, 4 mg/kg GA/E31-SLP where stated. The protocol: (B) F4/80 staining. Results are expressed as the mean±SEM (n=4 mice per group). *, p<0.05; **, p<0.01, ****, p<0.0001 (versus vehicle). […] Scale bar=200 μm.
Treatment persisted for 31, 29 and 29 days for mice containing AsPC-1, BxPC-3 and Capan-1 tumor xenografts, respectively. Mean tumor volumes are calculated and plotted. All results are expressed as the mean±SEM (n=6 mice per group). On the final day of treatment, tumor volumes were compared between the drug-treated and control groups. **, p<0.01; ***, p<0.001; ****, p<0.0001 (versus vehicle).
As described herein, after tumors in AsPC-1-, BxPC-3- or Capan-1-bearing mice reached a volume of 150-200 mm^3, mice were randomized into groups and intraperitoneally (i.p.) administered once daily 5 times per week (5qw) with either vehicle (black diamonds), GA/E31-dSLP (light gray triangles) or GA/E31-sSLP (white triangles) at indicated doses. Treatment persisted for 31, 29 and 29 days for mice containing AsPC-1, BxPC-3 and Capan-1 tumor xenografts, respectively. Mean tumor volumes are calculated and plotted. All results are expressed as the mean±SEM (n=6 mice per group). On the final day of treatment, tumor volumes were compared between the drug-treated and control groups. **, p<0.01; ***, p<0.001; ****, p<0.0001 (versus vehicle).
Treatment persisted for 31, 29 and 29 days for mice containing AsPC-1, BxPC-3 and Capan-1 tumor xenografts, respectively. Kaplan-Meier survival curves are shown for AsPC-1-, BxPC-3- or Capan-1-bearing mice (n=6 mice per group). **, p<0.01; ***, p<0.001 by log-rank test (versus vehicle).
Serum CSF1, VEGF and IL-6 levels were analyzed on study days 1 and 8 in BxPC-3-bearing mice treated daily 5 times per week (5qw) with either vehicle (black diamonds), GF9 (white circles) or GF9-LPC (black circles) at indicated doses. Results are expressed as the mean±SEM (n=5 mice per group). *, p<0.05; **, p<0.01; ***, p<0.001; ****, p<0.0001 (versus vehicle).

In experiment [3] the test system is C57BL/6 mice with LPS-induced septic shock. Nature of the experiment: LPS-induced septic shock: survival. It counts as in vivo, mouse. The conditions noted are these: free peptides, at this dose; 30 mg/kg LPS i.p. The method, then: One hour later, mice received i.p. injection of 30 mg/kg LPS from E. coli 055:B5 (Sigma). In some experiments, all formulations were i.p. administered 1 and 3 h after LPS injection. The viability of mice was examined hourly. Body weights were measured daily. In all of the animal experiments, blood samples were collected via a sub-mandibular (cheek) bleed at 90 min after administration of LPS. Statistical analysis of survival curves was performed by the Kaplan-Meier test. Comparisons were made using two-tailed Student's t test. The production of cytokines in serum was measured by a standard sandwich cytokine ELISA procedure using TNF-alpha, IL-1beta and IL-6 ELISA kits (Pierce Biotechnology, Thermo Scientific, Rockford, Ill.) according to the instructions of the manufacturer. Statistical significances in cytokine analysis ELISA data were determined by two-tailed Student's t test.
Naïve, female C57BL/6 mice at 8 to 10 weeks of age (18 to 21 g) from the Jackson Laboratory were randomly grouped (10 mice per group) and i.p. injected with vehicle or the indicated doses of dexamethasone (DEX), GF9, G-TE21, G-HV21 and G-KV21. One hour later, mice received i.p. injection of 30 mg/kg LPS from E. coli 055:B5 (Sigma). […] Body weights were measured daily. […] Statistical significances in cytokine analysis ELISA data were determined by two-tailed Student's t test.

Turning to `CC(C)C[C@H](NC(=O)[C@H](Cc1ccccc1)NC(=O)CN)C(=O)N[C@@H](CO)C(=O)N[C@@H](CCCCN)C(=O)N[C@@H](CO)C(=O)N[C@@H](CC(C)C)C(=O)N[C@H](C(=O)N[C@@H](Cc1ccccc1)C(=O)NCC(=O)N[C@@H](CCC(=O)O)C(=O)N[C@@H](CCC(=O)O)C(=O)N[C@@H](CC[S+](C)[O-])C(=O)N[C@@H](CCCNC(=N)N)C(=O)N[C@@H](CC(=O)O)C(=O)N[C@@H](CCCNC(=N)N)C(=O)N[C@@H](C)C(=O)N[C@@H](CCCNC(=N)N)C(=O)N[C@@H](C)C(=O)N[C@@H](Cc1c[nH]cn1)C(=O)N[C@H](C(=O)O)C(C)C)C(C)C` (stereo partly drawn) [G-HV21] (HELM PEPTIDE1{G.F.L.S.K.S.L.V.F.G.E.E.[CS(=O)CC[C@H](N[*:1])C(=O)[*:2]].R.D.R.A.R.A.H.V}$$$$V2.0), in experiment [1], the “cytokine release by LPS-stimulated macrophages in the presence of HDL” value is “significantly inhibit the cytokine release”. Besides, the “cytokine production by LPS-stimulated macrophages in the absence of HDL” value in experiment [1] (without HDL) is “does not affect the cytokine production”. In experiment [2], the “intratumoral macrophage infiltration (F4/80 staining)” value is reported as “reduce macrophage infiltration into the tumor” and the tumor growth result is given as “significantly inhibits the tumor growth”. For the same compound, the “protection from LPS-induced septic shock / survival” value in experiment [3] is “protect mice from LPS-induced septic shock and prolongs survival of septic mice”.

Take `CC(C)C[C@H](NC(=O)[C@H](Cc1ccccc1)NC(=O)CN)C(=O)N[C@@H](CO)C(=O)N[C@@H](CCCCN)C(=O)N[C@@H](CO)C(=O)N[C@@H](CC(C)C)C(=O)N[C@H](C(=O)N[C@@H](Cc1ccccc1)C(=O)N[C@@H](Cc1c[nH]c2ccccc12)C(=O)N[C@@H](CCC(N)=O)C(=O)N[C@@H](CCC(=O)O)C(=O)N[C@@H](CCC(=O)O)C(=O)N[C@@H](CC[S+](C)[O-])C(=O)N[C@@H](CCC(=O)O)C(=O)N[C@@H](CC(C)C)C(=O)N[C@@H](Cc1ccc(O)cc1)C(=O)N[C@@H](CCCNC(=N)N)C(=O)N[C@@H](CCC(N)=O)C(=O)N[C@@H](CCCCN)C(=O)N[C@H](C(=O)O)C(C)C)C(C)C` (stereo partly drawn) [G-KV21] (HELM PEPTIDE1{G.F.L.S.K.S.L.V.F.W.Q.E.E.[CS(=O)CC[C@H](N[*:1])C(=O)[*:2]].E.L.Y.R.Q.K.V}$$$$V2.0): in experiment [1], the “cytokine release by LPS-stimulated macrophages in the presence of HDL” value was “significantly inhibit the cytokine release”. Also, in experiment [2], the “intratumoral macrophage infiltration (F4/80 staining)” value was “reduce macrophage infiltration into the tumor” and the tumor growth entry was “significantly inhibits the tumor growth”. For the same compound, in experiment [3], the “protection from LPS-induced septic shock / survival” value was “protect mice from LPS-induced septic shock and prolongs survival of septic mice”.
